# Results as given in patent US20240382471A1, “GLUCAGON-LIKE PEPTIDE-1 RECEPTOR MODULATORS AND USES THEREOF” (HEPAGENE THERAPEUTICS (HK) LIMITED, priority 2021, published 2024).
# Molecular target: GLP1R (Homo sapiens, UniProt P43220)
# Assay: GLP1R/CRE-Luc luciferase reporter gene assay (agonist activity)
# Format: cell-based
# Design: host or cells: HKE293 (so in the source)
# Conditions: HKE293-Human GLP1R/CRE-luc cells, 5 h at 37° C., read-out: EC50 (nM) Assay 2
# Protocol: GLP1R-mediated agonist activity was determined with a cell-based functional assay utilizing a britelite plus luciferase reporter gene assay system. The stable cell line overexpress GLP1R and target response element. The stimulation with GLP1R agonist results in the upregulation of intracellular cAMP, which regulate the activities of cAMP-response element binding protein (CREB) and CREB-Luc. Reagents and equipment used in the assay are listed below, followed by the protocol.
# • 1) Cell Line: HKE293-Human GLP1R/CRE-luc • 2) Complete Medium: DMEM+10% FBS+1×Penicillin-Streptomycin+400 μg/mL G418
# • a) Seed HKE293-Human GLP1R/CRE-luc cells at 20,000 cells/well into 384 well assay plate (6007680-50, PE) using complete medium and incubate overnight. • b) Prepare 6×compound working solution with Medium. • c) Add 5 μL 6×compound working solution into cell plate, incubate 5 h at 37° C. • d) Add 20 μl britelite plus Luciferase Assay Reagent into each well of 384-well assay plate. • e) Record the luminescence value on Envision plate reader.
# • 3.1% Activity is calculated as follow:
# % Activity=(Signalcmpd−SignalAve_VC)/(SignalAve_PC−SignalAve_VC)×100. • 3.2 Calculate EC50 and Plot effect-dose curve of cmpds:
# Y=Bottom+(Top−Bottom)/(1+10^((Log EC50−X)*HillSlope)) • X: log of agonist concentration; Y: % Activity.
# GLP1R, sequence (P43220 24-463): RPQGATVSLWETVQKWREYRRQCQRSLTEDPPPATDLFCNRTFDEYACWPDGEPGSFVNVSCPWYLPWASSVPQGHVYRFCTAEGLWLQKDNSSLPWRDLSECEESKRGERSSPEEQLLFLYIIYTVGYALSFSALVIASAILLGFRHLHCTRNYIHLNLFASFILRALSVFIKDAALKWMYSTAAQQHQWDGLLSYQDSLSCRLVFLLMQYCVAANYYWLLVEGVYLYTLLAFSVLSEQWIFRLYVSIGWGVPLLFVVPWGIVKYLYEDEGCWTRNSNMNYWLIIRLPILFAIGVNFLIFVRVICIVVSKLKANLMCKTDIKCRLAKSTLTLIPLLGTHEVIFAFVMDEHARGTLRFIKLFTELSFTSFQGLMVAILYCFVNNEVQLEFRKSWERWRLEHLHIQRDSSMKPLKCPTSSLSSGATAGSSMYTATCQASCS
row,EC50,Compound
1,0.34 nM,"CCOc1cc(C(=O)O)cc2c1nc(CN1CCC3(c4nccc(OCc5ccc(C#N)cc5OC)n4)CC3C1)n2C[C@@H]1CCO1 (stereo partly drawn) [Compound 1-41, 2-((6-(4-((4-cyano-2-methoxybenzyl)oxy)pyrimidin-2-yl)-3-azabicyclo[4.1.0]heptan-3-yl)methyl)-4-ethoxy-1-(((S)-oxetan-2-yl)methyl)-1H-benzo[d]imidazole-6-carboxylic acid]"
2,6.5 nM,"COc1cc(C#N)ccc1COc1ccnc(C23CCN(Cc4nc5c(OC(C)C)cc(C(=O)O)cc5n4C[C@@H]4CCO4)CC2C3)n1 (stereo partly drawn) [Compound 1-42, 2-((6-(4-((4-cyano-2-methoxybenzyl)oxy)pyrimidin-2-yl)-3-azabicyclo[4.1.0]heptan-3-yl)methyl)-4-isopropoxy-1-(((S)-oxetan-2-yl)methyl)-1H-benzo[d]imidazole-6-carboxylic acid]"
3,0.49 nM,"COc1cc(C#N)ccc1COc1nc(C23CCN(Cc4nc5c(OC)cc(C(=O)O)cc5n4C[C@@H]4CCO4)CC2C3)ncc1F (stereo partly drawn) [Compound 1-43, 2-((6-(4-((4-cyano-2-methoxybenzyl)oxy)-5-fluoropyrimidin-2-yl)-3-azabicyclo[4.1.0]heptan-3-yl)methyl)-4-methoxy-1-(((S)-oxetan-2-yl)methyl)-1H-benzo[d]imidazole-6-carboxylic acid]"
4,0.3 nM,"CCn1cncc1Cn1c(CN2CCC3(c4cccc(OCc5ccc(C#N)cc5OC)n4)CC3C2)nc2ccc(C(=O)O)cc21 (stereo not drawn) [Compound 1-44, 2-((6-(6-((4-cyano-2-methoxybenzyl)oxy)pyridin-2-yl)-3-azabicyclo[4.1.0]heptan-3-yl)methyl)-1-((1-ethyl-1H-imidazol-5-yl)methyl)-1H-benzo[d]imidazole-6-carboxylic acid]"

# More lines, now with the values behind:
row,Compound,EC50
1,"COc1c(COc2cccc(C34CCN(Cc5nc6c(OC)cc(C(=O)O)cc6n5C[C@@H]5CCO5)CC3C4)n2)ccc(C#N)c1F (stereo partly drawn) [Compound 1-36, 2-((6-(6-((4-cyano-3-fluoro-2-methoxybenzyl)oxy)pyridin-2-yl)-3-azabicyclo[4.1.0]heptan-3-yl)methyl)-4-methoxy-1-(((S)-oxetan-2-yl)methyl)-1H-benzo[d]imidazole-6-carboxylic acid]",9.38 nM
2,"COc1ccc(COc2cccc(C34CCN(Cc5nc6ccc(C(=O)O)cc6n5C[C@@H]5CCO5)CC3C4)n2)c(F)c1 (stereo partly drawn) [Compound 1-37, 2-((6-(6-((2-fluoro-4-methoxybenzyl)oxy)pyridin-2-yl)-3-azabicyclo[4.1.0]heptan-3-yl)methyl)-1-(((S)-oxetan-2-yl)methyl)-1H-benzo[d]imidazole-6-carboxylic acid]",497 nM
3,"COc1cc(C#N)ccc1COc1ccnc(C23CCN(Cc4nc5c(OC)cc(C(=O)O)cc5n4C[C@@H]4CCO4)CC2C3)n1 (stereo partly drawn) [Compound 1-38, 2-((6-(4-((4-cyano-2-methoxybenzyl)oxy)pyrimidin-2-yl)-3-azabicyclo[4.1.0]heptan-3-yl)methyl)-4-methoxy-1-(((S)-oxetan-2-yl)methyl)-1H-benzo[d]imidazole-6-carboxylic acid]",0.79 nM
4,"CCOc1cc(C#N)ccc1COc1ccnc(C23CCN(Cc4nc5c(OC)cc(C(=O)O)cc5n4C[C@@H]4CCO4)CC2C3)n1 (stereo partly drawn) [Compound 1-39, 2-((6-(4-((4-cyano-2-ethoxybenzyl)oxy)pyrimidin-2-yl)-3-azabicyclo[4.1.0]heptan-3-yl)methyl)-4-methoxy-1-(((S)-oxetan-2-yl)methyl)-1H-benzo[d]imidazole-6-carboxylic acid]",29 nM
5,"COc1cc(C(=O)O)cc2c1nc(CN1CCC3(c4nccc(OCc5ccc(C#N)cc5OC(C)C)n4)CC3C1)n2C[C@@H]1CCO1 (stereo partly drawn) [Compound 1-40, 2-((6-(4-((4-cyano-2-isopropoxybenzyl)oxy)pyrimidin-2-yl)-3-azabicyclo[4.1.0]heptan-3-yl)methyl)-4-methoxy-1-(((S)-oxetan-2-yl)methyl)-1H-benzo[d]imidazole-6-carboxylic acid]",22.1 nM
